Source: patent US20110014226A1, “HIGH […] I[…]” (priority 2008, published 2011)

Legend:
[1] = ELISA of mouse antisera after immunization with hapten-CRM197 conjugates, coated with biotinylated Compound 2.45; assay type: in vivo; conditions: balb/c mice, 25 μg conjugate intramuscularly three times at 2-week intervals, Merck aluminum alum + IMO-2055; reciprocal endpoint titers by ELISA
[2] = ELISA of mouse antisera after immunization, coated with biotinylated Compound 2.58; assay type: in vivo; conditions: balb/c mice, 25 μg conjugate intramuscularly three times at 2-week intervals, Merck aluminum alum + IMO-2055; reciprocal endpoint titers by ELISA
ccIZN17 = assay: ELISA of mouse antisera after immunization, coated with ccIZN17; assay type: in vivo; conditions: balb/c mice, 25 μg conjugate intramuscularly three times at 2-week intervals, Merck aluminum alum + IMO-2055; reciprocal endpoint titers by ELISA
ccIZN36 = assay: ELISA of mouse antisera after immunization, coated with ccIZN36; assay type: in vivo; conditions: balb/c mice, 25 μg conjugate intramuscularly three times at 2-week intervals, Merck aluminum alum + IMO-2055; reciprocal endpoint titers by ELISA
5-helix = conditions: in vivo; for Post-dose 3 geometric mean antibody titer (GMT) elicited versus 5-helix: mouse
CRM197 = conditions: mouse, in vivo
D5 binding to 5-helix = assay: D5 Competitive Binding Assay (DCBA) high throughput screen with F19 counter-screen; parameters: species or system HIV-1; conditions: among the compounds listed in Table 2; DCBA primary screen vs F19 counter-screen
Excerpt: An in vitro binding assay was developed using D5 IgG conjugated to europium cryptate (Eu-D5) and a biotinylated gp41 mimetic molecule that presents the hydrophobic pocket in a stabilized structural context (termed 5-helix (or 5H) peptide). The assay readout is based on a fluorescence resonance energy transfer (FRET) format. Biotin-5-helix binds to a streptavidin-conjugated allophycocyanin (APC) substrate to form a 5H-SA-APC complex. When Eu-D5 binds to the hydrophobic pocket of biotin-5H, it brings the Eu into close proximity with the APC substrate to allow FRET from Eu to APC. When the reaction system is excited at a wavelength of 340 nm, the Eu signals at 620 nm. If the Eu is in close proximity to the APC, it excites the APC which results in long-lived emissions at 665 nm. Introducing a time delay (e.g., ˜100 μseconds) between the system excitation and fluorescence measurement allows the FRET signals to be cleared of non-specific short-lived emissions (“time-resolved FRET”). The resulting specific FRET signal indicative of the amount of Eu-D5 bound to biotin-5H can be quantified by the ratio of fluorescence [counts at 665 nm/fluorescence counts at 620 nm]×10,000. […]
Briefly, the assay was performed in the following manner. […] The plate was then read using the Fusion Universal Microplate Analyzer (Packard Bioscience). […]

SMILES	Post-dose 3 geometric mean antibody titer (GMT) elicited versus Compound 2.45 [1]	Post-dose 3 geometric mean antibody titer (GMT) elicited versus Compound 2.58 [2]	Post-dose 3 geometric mean antibody titer (GMT) elicited versus ccIZN17 (ccIZN17)	Post-dose 3 geometric mean antibody titer (GMT) elicited versus ccIZN36 (ccIZN36)	binding activity of individual mouse sera in the 5H ELISA (5-helix)	Post-dose 3 geometric mean antibody titer (GMT) elicited versus 5-helix (5-helix)	Post-dose 3 geometric mean antibody titer (GMT) elicited versus CRM197 (CRM197)	specific inhibition of D5 binding relative to F19 inhibition (D5 binding to 5-helix)
CCNC(=O)[C@]1(Cc2ccccc2)CCCN(C(=O)[C@@H](Cc2ccc(Cl)c(Cl)c2)NC(=O)N[C@@H]2CCCNC2)C1 [Compound 2.58]	>1,600,000	713,155	200	<100	more pronounced binding activity	200	400	
CCNC(=O)[C@]1(Cc2ccccc2)CCCN(C(=O)[C@@H](Cc2ccc3ccccc3c2)NC(=O)N2CCNCC2)C1 [Compound 2.45]	>1,600,000	>1,600,000	<100	<100	more pronounced binding activity	400	1,600	
CCNC(=O)[C@]1(Cc2ccccc2)CCCN(C(=O)[C@@H](Cc2ccc3ccccc3c2)NC(=O)N2CC(C)NC(C)C2)C1 (stereo partly drawn) [Compound 1.1]								the best in terms of specific inhibition of D5 binding relative to F19 inhibition
